Source: patent US9365851B2, “Spalt-like transcription factor 4 (SALL4) and uses thereof” (National University of Singapore, priority 2011, dated 2016)

Columns and labels:
[1] = test system: primary human AML cells; assay: Xenotransplantation of peptide-treated primary human AML cells into NSG mice; type: in vivo; details: 11 weeks after transplantation, cells treated with Pep-1 plus peptide
Protocol: FIGS. 12A-12F: Treatment of SALL4 peptide in primary human AML cells induces reduced cell viability in culture and impaired leukemic engraftment in vivo. (12A) Wild type peptide treatment reduces cell viability of human AML cells in culture, and this effect can be reversed in part by the PTEN inhibitor SF1670. 1×10^6 AML cells were treated with nothing (None), Pep-1 alone (Mock), or 20 μM wild type (wt), or scrambled peptide (scr), or wt peptide with 400 nM PTEN inhibitor SF1670 (wt+inh) or with 100 nM TSA for 48 hours, as described in the Methods. Cell viability of untreated primary AML cells is set as 100. […] Percentage of human CD45+ cells engrafted in BM, spleen (SP) and peripheral blood (PB) was determined by flow cytometry. […]
NSG (NOD.Cg-Prkdcscid Il2rgtm 1Wjl/SzJ, The Jackson Laboratory, ME, USA) mice were bred and maintained in the Children's Hospital Boston animal facility. […] The percentage of human CD45+ cells was calculated as follows: % human CD45+ cells=No. human CD45+ cells/(No. human CD45+ cells+No. mouse CD45+ cells)×100. […]
Subsequently tested was the ability of peptide treatment to inhibit the development of AML in vivo utilizing xenografts. […] In addition, the engraftment of human CD45+ cells was evaluated by flow cytometry (FIG. 12E). […]

[2] = test system: SALL4 interaction with HDAC1; assay: Co-immunoprecipitation of endogenous SALL4 with HDAC1 after peptide treatment (SNU-398); type: binding, human; details: SNU-398, anti-SALL4 IP
Description: FIGS. 9A-9E: The wild type peptide blocks SALL4 repression of PTEN. (9A) Flow cytometry analysis on SNU-398 cells treated with Pep-1 carrier peptide alone (top panel), wild type peptide alone (middle panel), or Pep-1 carrier+peptide (lower panel). […] (9B) Confocal images of the distribution of FITC-labeled peptide in SNU-398 cells treated as shown in (9A). (9C) The endogenous SALL4 interaction with HDAC is blocked by wild type (wt) but not scrambled (scr) peptide. SALL4 was immunoprecipitated from SNU-398 nuclear extracts (1×10^6 cells) pre-treated with wild type or scrambled peptides as indicated using an anti-SALL4 antibody. Immunoprecipitates were analyzed by Western blot using HDAC1 (top panel) or SALL4 (lower panel) antibodies. […] Equal amount of SALL4 protein was present in all samples. In Lane 4 (“10% input”), 10% of the amount of nuclear extract used in lanes 1-3 was subjected to Western blot analysis without immunoprecipitation. […] Enrichment with control IgG was set at 1.
Furthermore, whether wt peptide can compete with endogenous SALL4 in interacting with HDAC1 was tested. SNU-398 cells were treated with wt or Scr peptides. […] This effect was not observed with the SNU-398 cells treated with Scr peptide and HDAC1 was still present in the endogenous SALL4 pull-down (FIG. 2).
Next tested was whether wild type peptide could compete for the interaction of endogenous SALL4 with HDAC1. SNU-398 cells were treated with wild type or scrambled peptides along with the peptide carrier Pep-1.

Substance | average engraftment of human CD45+ cells in bone marrow [1] | interaction of endogenous SALL4 with HDAC1 [2] | interaction of endogenous SALL4 with HDAC1 ([2]; listed as scrambled peptide)
H-MSRRKQAKPQHI-OH [wt peptide, MSRRKQAKPQHI] | 0.5% | completely abrogated | 
Scr peptide: same 12 amino acids as the wt peptide, but in a scrambled sequence; negative control (SRMRQKIHPKIQ) [reference compound] | greater than 74% | not observed | does not affect the interaction
